Experiments:
[1] = tested on: Akt phosphorylation in Aβ42-expressing SH-SY5Y cells; test: Akt activation in Aβ42-expressing cells (adenovirus/doxycycline, insulin-stimulated); format: cell-based
Procedure: Adv TetOn and TRE-Aβ42 viruses were described previously (Magrane et al., 2005). […] Insulin (10 or 40 nM) was added in the last 20-30 min before harvest. […] Cell extracts were prepared in lysis buffer [20 mM Tris-HCl (pH 7.5), 150 mM NaCl, 1 mM EDTA, 1 mM Na3VO4, 1% NP-40, 10% Glycerol, 1 mM Na4P2O7, 1 μg/ml Leupeptin, 1 μg/ml Pepstatin A, 1 μg/ml Aprotinin, 0.1 mM phenylmethylsulfonyl fluoride, and protease inhibitor cocktail (Roche)] and were stored at −80° C. until use.
Whole-cell extracts were used directly for western blot analysis (20˜30 μg). Extracts from cultured cells prepared in lysis buffer, were diluted into Laemmli sample buffer, heated (95° C., 10 min), cleared by centrifugation, separated on SDS-PAGE and transferred to PVDF membrane (Immobilon-P; Millipore). Membranes were blocked in TBS containing 0.3% Tween-20 and 5% (wt/vol) non-fat dry milk. After incubation with primary antibodies (18 hr at 4° C. in buffer containing 5% bovine serum albumin (BSA) and 0.05% NaN3), blots were washed and incubated in horseradish peroxidase (HRP)-conjugated secondary antibodies (1:2000 dilution; Cell Signaling). Signals were detected using ECL reagents and quantified using a Kodak Image Station 4000R.
[…]. […] […]. […] […].

[2] = tested on: mTOR; test: Downstream mTOR phosphorylation; format: cell-based; settings: PS48 1 or 10 μM, 2-4 hrs before doxycycline
[3] = tested on: LTP in rat prefrontal cortical slices; test: Long term potentiation (LTP) in acute prefrontal cortical slices perfused with Aβ42 oligomers; format: cell-based; settings: PS48 10 μM
Procedure: FIG. 3A. […] LTP was measured as % baseline excitatory postsynaptic potential (EPSP) amplitudes. […] Washout restored LTP (4).
Minor modifications were made to previous published procedures (Marshall et al., 2017; Molina-Luna et al., 2009). Deeply anesthetized rats (pentobarbital, 50 mg/kg) were decapitated, their brains quickly removed and immersed in cold (5-7° C.), oxygenated (95% O2/5% CO2) artificial cerebrospinal fluid (ACSF) containing: 126 mM NaCl, 3 mM KCl, 1.25 mM NaH2PO4, 1 mM MgSO4, 2 mM CaCl2, 26 mM NaHCO3, 10 mM dextrose. […] Control treatment was DMSO in ACSF (artificial cerebrospinal fluid, 20 μM bicuculline). Extracellular postsynaptic field potentials were recorded using an AxoClamp2B amplifier (Axon instruments) and EX1 differential amplifier (Dagan), and digitized at 10 kHz. Data was acquired using Igor Pro (Wave Metrics) and Neuromatic (neuromatic.thinkrandom.com). The stimulus intensity eliciting 50% of the maximum amplitude (˜32 μA) was used for all measurements before and after LTP induction. Baseline amplitudes were recorded for 20-30 minutes using single field stimuli applied every 30 sec to layer IV-V using concentric bipolar electrodes. Following a stable baseline period, LTP was induced by two sets of high-frequency stimulation (HFS) at 100 Hz, 60 μA (twice stimulus intensity), for 1 sec, 20 sec apart. Extracellular postsynaptic field potentials were measured from layer II-III using glass micropipettes filled with 0.9% NaCl. The amplitude rather than the slope of evoked FPs was used as a measure of the population excitatory synaptic response because in the neocortex the initial slope was contaminated by antidromic stimulation. LTP values were expressed as percentage of mean baseline EPSP±SEM. Paired two-tailed t-tests were used for statistical analysis.
LTP was measured as % baseline excitatory postsynaptic potential (EPSP) amplitudes. […] Washout restored LTP.

[4] = tested on: transgenic mice; test: Contextual and cued fear conditioning; format: in vivo, mouse; settings: 16-month-old Tg mice; no significant changes
Procedure: Next, a series of experiments was performed to assess contextual and cued fear conditioning. 16-month-old mice WT, TG w/vehicle, and TG w/PS48 were first habituated to establish activity levels (300 sec), then presented 3 shock-tone pairings, followed by probes of contextual and cued fear memory. Prior to conditioning to the tone and foot shock, mice in all groups experienced very low levels of freezing (Baseline Freezing Day 1) (FIG. 14A) and the expected freezing to the shock (FIG. 14B).
After the conditioning procedure, when mice were placed back in the same context but without tone or shock (Day 2), freezing was measured over 8 minutes, the last 4 minutes were quantified.
On Day 3 the context was changed for 2 minutes (12 bins) and mice were exposed to a continuous tone (cue) used during conditioning for 8 minutes. […] Freezing % was quantified as the number of 10-sec epochs in which there was no beam break over the total number of epochs in the 4-minute period (24). […] Sec FIG. 14D.

[5] = tested on: cells; settings: WST-1
Procedure: SH-SY5Y cells were washed twice in warm Dulbecco's phosphate-buffered saline (DPBS) and incubated in 1 ml DMEM containing 0.5 mg (3-[4,5-dimethylthiazol-2-yl]-2,5-diphenyltetrazolium bromide) (MTT or WST; Molecular Probes, Eugene, OR) for 2-3 h at 37° C. and 5% CO2. The medium was aspirated and the cells were washed twice with pre-warmed DPBS. The formazan salts were dissolved in 1 ml pure ethanol before use. Cells were homogenized by repetitive pipetting and centrifuged for 5 min at 4500 rpm, and the supernatant collected. Absorbance was read against an ethanol blank at 590 nm.

[6] = tested on: CREB phosphorylation (pS133) in SH-SY5Y cells; test: Endogenous p-CREB levels in Aβ42-expressing SH-SY5Y cells; settings: PS48 50 nM; insulin 250 ng/ml 30 min
Procedure: Whole cell extracts were fractionated by Western and probed with monoclonal anti-pCREB pS133. […] All cells were stimulated with insulin 250 ng/ml for 30 min before harvest.

## O=C(O)/C=C(/CCc1ccc(Cl)cc1)c1ccccc1 [PS48, (Z)-5-(4-chlorophenyl)-3-phenylpent-2-enoic acid]
[1]; SH-SY5Y and C2C12 myotube cell lines, p<0.01
  concentration at which the dose-dependent reversal became apparent: 100 nM
[1]; SH-SY5Y and C2C12 myotube data combined, PS48 100 nM and 1 μM (and 10 μM)
  reversal of Aβ42 inhibition of insulin-stimulated Akt phosphorylation: significantly reversed the Aβ42 effect
[1]; SH-SY5Y, PS48 1 μM or insulin 100 nM added 2 hrs before doxycycline, insulin 40 nM 20 min prior to harvest
  Akt activation (pT308) in β-amyloid-expressing cells: restored basal Akt activation levels
[1]; SH-SY5Y, PS48 1 μM, no Aβ42 induction
  basal Akt, compound alone: did not over-stimulate
[1]; SH-SY5Y, PS48 pre-treatment 50 nM, 2 hrs before doxycycline
  Akt activity: phosphorylation of GSK3α/β consensus peptide by immunoprecipitated Akt (in vivo-in vitro coupled assay): prevented the inhibition of peptide phosphorylation by Aβ42
[2]
  downstream mTOR substrate phosphorylation: unchanged
[3]; Aβ42 ADDLs 0.5 μM, at the 1-hour mark after Aβ42 application
  LTP (% baseline EPSP amplitude) inhibited by Aβ42 oligomers: significantly improved LTP
[3]; by 3 hours
  LTP (% baseline EPSP amplitude) inhibited by Aβ42 oligomers: the beneficial effect had disappeared
[4]
  cue fear conditioning, freezing: a trend in cue conditioning paradigm favored PS48 treatment
[5]
  LD50: 250 µM
[6]
  p-CREB (pS133) levels reduced by Aβ42 expression: mitigated the Aβ42 effect
